In ChEMBL document CHEMBL4673317, “Linearolactone and Kaempferol Disrupt the Actin Cytoskeleton in Entamoeba histolytica: Inhibition of Amoebic Liver Abscess Development” (J Nat Prod, 2020):
Activity calls are given as the source filed them. The rule behind the calls is not given here.

Experiments:
Entamoeba histolytica [1] = assay: Antimicrobial activity against Entamoeba histolytica […] trophozoites infected in Syrian hamster assessed as inhibition of amoebic liver abscess by measuring vascular congestion at 0.1 mg/kg, ip at 4 days post infection and measured on day 8 by H and E staining based microscopic method; type: functional, organism-based; details: HM-1:IMSS, time 4.0 day
Entamoeba histolytica [2] = assay: Antimicrobial activity against Entamoeba histolytica HM1:MMS assessed as reduction in amoeba growth; type: functional, organism-based; details: HM-1:IMSS
Entamoeba histolytica [3] = assay: Antimicrobial activity against Entamoeba histolytica […] trophozoites assessed as decrease in number of vacuoles at IC50 concentration after 48 hrs by uranyl acetate staining based TEM analysis; type: functional, organism-based; details: HM-1:IMSS
Entamoeba histolytica [4] = assay: Antimicrobial activity against Entamoeba histolytica […] trophozoites assessed as decrease in granularity at IC50 concentration after 48 hrs by uranyl acetate staining based TEM analysis; type: functional, organism-based; details: HM-1:IMSS
Entamoeba histolytica [5] = assay: Antimicrobial activity against Entamoeba histolytica […] trophozoites assessed as decrease in size of cells at IC50 concentration after 48 hrs by uranyl acetate staining based TEM analysis; type: functional, organism-based; details: HM-1:IMSS
Entamoeba histolytica [6] = assay: Antimicrobial activity against Entamoeba histolytica […] trophozoites assessed as abnormal condensation of chromatin at IC50 concentration after 48 hrs by uranyl acetate staining based TEM analysis; type: functional, organism-based; details: HM-1:IMSS
Entamoeba histolytica [7] = assay: Antimicrobial activity against Entamoeba histolytica […] trophozoites infected in Syrian hamster assessed as inhibition of amoebic liver abscess by measuring edema at 0.1 mg/kg, ip at 4 days post infection and measured on day 8 by H and E staining based microscopic method; type: functional, organism-based; details: HM-1:IMSS, time 4.0 day
Entamoeba histolytica [8] = assay: Induction of ROS generation in Entamoeba histolytica […] trophozoites at IC50 concentration incubated for 1 hr by DCFDA staining based assay; type: functional, organism-based; details: HM-1:IMSS
Entamoeba histolytica [9] = assay: Induction of ROS generation in Entamoeba histolytica […] trophozoites at IC50 concentration incubated for 1 hr in presence of catalase by DCFDA staining based assay relative to control; type: functional, HM-1:IMSS
Entamoeba histolytica [10] = assay: Antimicrobial activity against Entamoeba histolytica […] trophozoites infected in Syrian hamster assessed as total bilirubin level at 0.1 mg/kg, ip at 4 days post infection and measured on day 8 (reference value: 0.8 +/- 0.2 mg/dl); type: functional, HM-1:IMSS; details: time 4 day
Entamoeba histolytica [11] = assay: Antimicrobial activity against Entamoeba histolytica […] trophozoites infected in Syrian hamster assessed as ALT level at 0.1 mg/kg, ip at 4 days post infection and measured on day 8 (reference value: 276 +/- 24 U/L); type: functional, HM-1:IMSS; details: time 4 day
Entamoeba histolytica [12] = assay: Antimicrobial activity against Entamoeba histolytica […] trophozoites infected in Syrian hamster assessed as ALP level at 0.1 mg/kg, ip at 4 days post infection and measured on day 8 (reference value: 638 +/- 50 U/L); type: functional, HM-1:IMSS; details: time 4 day
Entamoeba histolytica [13] = assay: Antimicrobial activity against Entamoeba histolytica […] trophozoites infected in Syrian hamster assessed as inhibition of amoebic liver abscess at 0.1 mg/kg, ip at 4 days post infection and measured on day 8 by NMR analysis; type: functional, organism-based; details: HM-1:IMSS, time 4.0 day
Entamoeba histolytica [14] = assay: Antimicrobial activity against Entamoeba histolytica […] trophozoites infected in Syrian hamster assessed as inhibition of amoebic liver abscess by measuring liver weight at 0.1 mg/kg, ip at 4 days post infection and measured on day 8 relative to control; type: functional; details: HM-1:IMSS, 96 h, time 4 day
Entamoeba histolytica [15] = assay: Induction of apoptosis in Entamoeba histolytica […] trophozoites assessed as viable cells at IC50 concentration after 48 hrs by annexin-V-FITC/propidium iodide staining based flow cytometric analysis (reference value: 98%); type: functional, HM-1:IMSS
Entamoeba histolytica [16] = assay: Induction of apoptosis in Entamoeba histolytica […] trophozoites assessed as early apoptotic cells at IC50 concentration after 48 hrs by annexin-V-FITC/propidium iodide staining based flow cytometric analysis (reference value: 0.9%); type: functional, HM-1:IMSS
Entamoeba histolytica [17] = assay: Induction of apoptosis in Entamoeba histolytica […] trophozoites assessed as late apoptotic cells at IC50 concentration after 48 hrs by annexin-V-FITC/propidium iodide staining based flow cytometric analysis (reference value: 0.7%); type: functional, HM-1:IMSS
Entamoeba histolytica [18] = assay: Induction of apoptosis in Entamoeba histolytica […] trophozoites assessed as necrotic cells at IC50 concentration after 48 hrs by annexin-V-FITC/propidium iodide staining based flow cytometric analysis (reference value: 0.4%); type: functional, HM-1:IMSS
Entamoeba histolytica [19] = assay: Induction of DNA fragmentation in Entamoeba histolytica […] trophozoites at IC50 concentration after 1 hr by TUNEL assay relative to control; type: functional, HM-1:IMSS
Entamoeba histolytica [20] = assay: Antimicrobial activity against Entamoeba histolytica […] trophozoites infected in Syrian hamster assessed as inhibition of amoebic liver abscess by abundant monocytes at 0.1 mg/kg, ip at 4 days post infection and measured on day 8 by H and E staining based microscopic method; type: functional, organism-based; details: HM-1:IMSS, time 4.0 day
Entamoeba histolytica [21] = assay: Binding affinity to Entamoeba histolytica […] trophozoites actin assessed as induction of polarization of polymerized actin at IC50 concentration incubated for 1 hrs by […] staining based confocal microscopic analysis
Entamoeba histolytica [22] = assay: Antimicrobial activity against Entamoeba histolytica […] trophozoites infected in Syrian hamster assessed as triglycerides level at 0.1 mg/kg, ip at 4 days post infection and measured on day 8 (reference value: 395 +/- 41 mg/dl); type: functional, HM-1:IMSS; details: time 4 day
Entamoeba histolytica [23] = assay: Antimicrobial activity against Entamoeba histolytica […] trophozoites infected in Syrian hamster assessed as blood ureic nitrogen level at 0.1 mg/kg, ip at 4 days post infection and measured on day 8 (reference value: […]); type: functional, HM-1:IMSS; details: time 4 day
Entamoeba histolytica [24] = assay: Antimicrobial activity against Entamoeba histolytica […] trophozoites infected in Syrian hamster assessed as urea level at 0.1 mg/kg, ip at 4 days post infection and measured on day 8 (reference value: 14 +/- 1 mg/dl); type: functional, HM-1:IMSS; details: time 4 day
Entamoeba histolytica [25] = assay: Antimicrobial activity against Entamoeba histolytica […] trophozoites infected in Syrian hamster assessed as creatinine level at 0.1 mg/kg, ip at 4 days post infection and measured on day 8 (reference value: 0.9 +/- 0.06 mg/dl); type: functional, HM-1:IMSS; details: time 4 day
Entamoeba histolytica [26] = assay: Antimicrobial activity against Entamoeba histolytica […] trophozoites infected in Syrian hamster assessed as platelets at 0.1 mg/kg, ip at 4 days post infection and measured on day 8 (reference value: 439 +/- 108 […]); type: functional, HM-1:IMSS; details: time 4 day
Entamoeba histolytica [27] = assay: Antimicrobial activity against Entamoeba histolytica […] trophozoites infected in Syrian hamster assessed as glucose level at 0.1 mg/kg, ip at 4 days post infection and measured on day 8 (reference value: 126 +/- 18 mg/dl); type: functional, HM-1:IMSS; details: time 4 day
BEAS-2B = assay: Cytotoxicity against human BEAS-2B cells assessed as reduction in cell viability after 24 hrs by MTT assay; type: cell-based
CHO-K1 = assay: Cytotoxicity against CHO-K1 cells assessed as reduction in cell viability after 24 hrs by MTT assay; type: cell-based; details: Cricetulus griseus, CHO-K1, 24 h
Entamoeba histolytica [28] = assay: Induction of ROS generation in Entamoeba histolytica […] trophozoites at IC50 concentration incubated for 1 hr in presence of trolox by DCFDA staining based assay relative to control; type: functional, HM-1:IMSS
Entamoeba histolytica [29] = assay: Binding affinity to Entamoeba histolytica […] trophozoites actin assessed as formation of pseudo-plates at IC50 concentration incubated for 1 hrs by […] staining based confocal microscopic analysis

Row | Compound | IC50 (Entamoeba histolytica [2]) | Activity (Entamoeba histolytica [4]) | Activity (Entamoeba histolytica [5]) | Activity (Entamoeba histolytica [6]) | Activity (Entamoeba histolytica [8]) | Activity (Entamoeba histolytica [10]) | Activity (Entamoeba histolytica [11]) | Activity (Entamoeba histolytica [12]) | Activity (Entamoeba histolytica [15]) | Activity (Entamoeba histolytica [16]) | Activity (Entamoeba histolytica [17]) | Activity (Entamoeba histolytica [18]) | Activity (Entamoeba histolytica [22]) | Activity (Entamoeba histolytica [23]) | Activity (Entamoeba histolytica [24]) | Activity (Entamoeba histolytica [25]) | Activity (Entamoeba histolytica [26]) | Activity (Entamoeba histolytica [27]) | IC50 (BEAS-2B) | IC50 (CHO-K1) | further results
1 | C[C@]12C[C@H](c3ccoc3)OC(=O)[C@H]1CC[C@@]13COC(=O)C1=CC=C[C@H]32 | 27.7 µM | Active | Active | Active | Active | 0.4 mg/dL | 81 U/L | 324 U/L | 12.6% | 19.5% | 58.6% | 9.4% | 127 mg/dL | 17 mg/dL | 45 mg/dL | 0.6 mg/dL | 320 thousand/mm3 | 130 mg/dL | 600 µM | 880 µM | inhibition (Entamoeba histolytica [1]): Active; Activity (Entamoeba histolytica [3]): Active; inhibition (Entamoeba histolytica [7]): Active; Activity (Entamoeba histolytica [9]): 52.68%; inhibition (Entamoeba histolytica [13]): Active; inhibition in vivo at 0.1 mg/kg (Entamoeba histolytica [14]): 93.3%; Activity (Entamoeba histolytica [19]): 78%; inhibition (Entamoeba histolytica [20]): Active; Activity (Entamoeba histolytica [21]): Active
2 | Cc1ncc([N+](=O)[O-])n1CCO [METRONIDAZOLE] | 22.9 µM | Active | Active | Active | Active | 0.8 mg/dL | 159 U/L | 185 U/L | 91.3% | 5.5% | 2.9% | 0.3% | 335 mg/dL | 19 mg/dL | 41 mg/dL | 1 mg/dL | 616 thousand/mm3 | 148 mg/dL | 2240 µM | 2920 µM | Activity (Entamoeba histolytica [28]): 49.11%; Activity (Entamoeba histolytica [29]): Active
